Assay results: ChEMBL document CHEMBL5346945, “Discovery and Optimization of the First ATP Competitive Type-III c-MET Inhibitor” (J Med Chem, 2023)

Columns and labels:
[1] = Metabolic stability in Han Wistar rat hepatocytes assessed as intrinsic clearance measured per million cells at 1 uM measured at 0.5 to 2 hrs by LC-MS/MS analysis; assay type: ADME, cell-based, Hepatocyte; conditions: time 0.5-2 hrs, read-out: CLH
[2] = Lipophilicity, logD of compound in octanol and water at pH 7.4 measured by shake-flask method; assay type: physicochemical
[3] = Metabolic stability in human liver microsomes assessed as intrinsic clearance at 1 uM preincubated with NADPH for 8 mins followed by compound addition measured at 0.5 to 30 mins by LC-MS/MS analysis; assay type: ADME, Microsome; conditions: time 0.5-30 min, read-out: CLH
[4] = target: T1, Hepatocyte growth factor receptor (Homo sapiens, UniProt P08581); experiment: Inhibition of wild type c-MET (unknown origin) using ATP and poly(L-glutamic acid-L-tyrosine) as substrate incubated for 60 mins measured by ADP-Glo kinase assay
[5] = target: T1, Hepatocyte growth factor receptor; conditions: dose 100.0 nM
Description: Inhibition of c-MET (unknown origin) at 100 nM relative to control

[6] = target: T2, Tyrosine-protein kinase Mer (Homo sapiens) (UniProt Q12866); conditions: dose 100.0 nM
T2 sequence (whole entry): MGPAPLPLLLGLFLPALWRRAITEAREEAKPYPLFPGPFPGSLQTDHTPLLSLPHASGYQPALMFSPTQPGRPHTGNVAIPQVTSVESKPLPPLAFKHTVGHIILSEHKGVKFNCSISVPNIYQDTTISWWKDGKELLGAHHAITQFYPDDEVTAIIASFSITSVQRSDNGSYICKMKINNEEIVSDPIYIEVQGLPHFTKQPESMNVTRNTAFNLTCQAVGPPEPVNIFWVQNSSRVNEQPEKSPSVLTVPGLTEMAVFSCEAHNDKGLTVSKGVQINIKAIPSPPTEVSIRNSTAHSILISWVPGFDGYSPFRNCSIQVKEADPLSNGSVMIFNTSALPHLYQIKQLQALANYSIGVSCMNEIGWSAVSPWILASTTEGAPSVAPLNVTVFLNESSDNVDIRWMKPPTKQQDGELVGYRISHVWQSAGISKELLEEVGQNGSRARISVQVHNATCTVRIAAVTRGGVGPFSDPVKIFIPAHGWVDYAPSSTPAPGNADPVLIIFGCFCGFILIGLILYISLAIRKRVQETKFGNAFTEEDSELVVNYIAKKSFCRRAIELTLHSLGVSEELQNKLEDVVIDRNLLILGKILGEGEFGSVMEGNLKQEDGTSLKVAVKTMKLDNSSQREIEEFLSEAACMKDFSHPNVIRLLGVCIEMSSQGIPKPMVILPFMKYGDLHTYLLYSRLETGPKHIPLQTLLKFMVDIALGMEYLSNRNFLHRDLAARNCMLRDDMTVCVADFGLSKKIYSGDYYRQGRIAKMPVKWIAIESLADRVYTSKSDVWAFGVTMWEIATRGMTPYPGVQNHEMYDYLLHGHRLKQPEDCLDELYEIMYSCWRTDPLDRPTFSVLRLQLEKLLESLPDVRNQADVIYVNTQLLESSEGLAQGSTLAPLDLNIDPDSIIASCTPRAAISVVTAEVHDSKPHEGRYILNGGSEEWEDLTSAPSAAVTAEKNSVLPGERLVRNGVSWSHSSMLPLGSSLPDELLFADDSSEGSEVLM
Description: Inhibition of MERTK (unknown origin) at 100 nM relative to control

[7] = target: Macrophage-stimulating protein receptor (Homo sapiens) (UniProt Q04912); conditions: dose 100.0 nM
Description: Inhibition of MST1R (unknown origin) at 100 nM relative to control

[8] = target: T3, Tyrosine-protein kinase receptor TYRO3 (Homo sapiens) (UniProt Q06418); conditions: dose 100.0 nM
T3 sequence (whole entry): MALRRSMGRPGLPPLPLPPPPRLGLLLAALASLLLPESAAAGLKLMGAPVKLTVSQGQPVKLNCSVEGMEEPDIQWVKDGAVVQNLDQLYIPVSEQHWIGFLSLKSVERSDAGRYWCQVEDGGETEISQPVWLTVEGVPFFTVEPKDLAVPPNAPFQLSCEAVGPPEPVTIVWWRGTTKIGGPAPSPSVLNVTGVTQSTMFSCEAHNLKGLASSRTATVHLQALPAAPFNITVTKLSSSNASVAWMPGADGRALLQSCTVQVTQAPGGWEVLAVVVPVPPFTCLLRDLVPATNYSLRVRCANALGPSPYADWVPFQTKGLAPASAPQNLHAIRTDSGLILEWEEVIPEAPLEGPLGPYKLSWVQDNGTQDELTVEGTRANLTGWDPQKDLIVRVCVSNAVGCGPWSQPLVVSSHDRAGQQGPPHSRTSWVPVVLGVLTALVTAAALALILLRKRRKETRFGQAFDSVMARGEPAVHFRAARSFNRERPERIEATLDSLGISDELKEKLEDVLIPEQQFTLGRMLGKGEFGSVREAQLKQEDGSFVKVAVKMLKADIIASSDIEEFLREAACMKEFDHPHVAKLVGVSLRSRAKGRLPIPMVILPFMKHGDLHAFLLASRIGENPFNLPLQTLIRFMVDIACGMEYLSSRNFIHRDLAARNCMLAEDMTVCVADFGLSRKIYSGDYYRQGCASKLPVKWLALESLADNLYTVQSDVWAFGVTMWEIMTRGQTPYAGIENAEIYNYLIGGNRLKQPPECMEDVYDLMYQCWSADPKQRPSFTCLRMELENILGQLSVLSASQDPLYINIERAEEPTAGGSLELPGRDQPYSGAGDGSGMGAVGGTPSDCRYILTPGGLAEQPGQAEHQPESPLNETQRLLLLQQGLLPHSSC
Description: Inhibition of TYRO3 (unknown origin) at 100 nM relative to control

T1 sequence (P08581 whole entry): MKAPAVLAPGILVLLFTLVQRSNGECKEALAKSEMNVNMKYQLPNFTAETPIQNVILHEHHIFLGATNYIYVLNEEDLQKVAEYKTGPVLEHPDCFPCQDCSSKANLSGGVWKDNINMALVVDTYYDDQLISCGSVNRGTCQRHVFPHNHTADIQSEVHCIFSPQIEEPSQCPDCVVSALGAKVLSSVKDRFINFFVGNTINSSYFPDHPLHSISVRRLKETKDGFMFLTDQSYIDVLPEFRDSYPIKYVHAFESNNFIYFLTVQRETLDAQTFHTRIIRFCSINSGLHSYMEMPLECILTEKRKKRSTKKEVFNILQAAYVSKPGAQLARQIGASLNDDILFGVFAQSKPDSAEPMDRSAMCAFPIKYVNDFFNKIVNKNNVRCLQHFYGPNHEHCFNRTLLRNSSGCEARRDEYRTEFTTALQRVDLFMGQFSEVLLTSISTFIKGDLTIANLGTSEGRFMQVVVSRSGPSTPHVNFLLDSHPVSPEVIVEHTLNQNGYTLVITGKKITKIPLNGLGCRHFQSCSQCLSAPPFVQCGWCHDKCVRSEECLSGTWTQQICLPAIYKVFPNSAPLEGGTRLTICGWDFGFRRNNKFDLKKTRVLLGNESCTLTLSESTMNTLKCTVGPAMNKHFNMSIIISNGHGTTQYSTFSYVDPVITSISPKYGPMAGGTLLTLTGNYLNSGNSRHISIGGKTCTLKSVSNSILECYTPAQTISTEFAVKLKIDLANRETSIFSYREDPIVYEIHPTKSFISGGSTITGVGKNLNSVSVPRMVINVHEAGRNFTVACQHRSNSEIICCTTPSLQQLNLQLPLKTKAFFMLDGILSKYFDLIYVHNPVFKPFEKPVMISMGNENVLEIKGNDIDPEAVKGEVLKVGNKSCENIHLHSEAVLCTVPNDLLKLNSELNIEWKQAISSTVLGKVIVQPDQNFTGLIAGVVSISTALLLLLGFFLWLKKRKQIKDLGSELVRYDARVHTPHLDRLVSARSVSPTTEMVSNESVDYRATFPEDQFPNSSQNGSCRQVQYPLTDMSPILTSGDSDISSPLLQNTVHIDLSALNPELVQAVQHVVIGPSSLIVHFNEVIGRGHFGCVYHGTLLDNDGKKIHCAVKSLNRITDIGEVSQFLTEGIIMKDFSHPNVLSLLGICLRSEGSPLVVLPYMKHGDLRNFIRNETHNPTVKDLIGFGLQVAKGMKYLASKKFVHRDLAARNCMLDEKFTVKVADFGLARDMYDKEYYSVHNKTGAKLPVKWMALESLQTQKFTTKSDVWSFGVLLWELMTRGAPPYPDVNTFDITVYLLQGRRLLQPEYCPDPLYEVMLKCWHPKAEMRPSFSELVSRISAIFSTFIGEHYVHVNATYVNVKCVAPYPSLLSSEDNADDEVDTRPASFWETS
Macrophage-stimulating protein receptor (Homo sapiens), sequence (Q04912 25-304 limits assumed): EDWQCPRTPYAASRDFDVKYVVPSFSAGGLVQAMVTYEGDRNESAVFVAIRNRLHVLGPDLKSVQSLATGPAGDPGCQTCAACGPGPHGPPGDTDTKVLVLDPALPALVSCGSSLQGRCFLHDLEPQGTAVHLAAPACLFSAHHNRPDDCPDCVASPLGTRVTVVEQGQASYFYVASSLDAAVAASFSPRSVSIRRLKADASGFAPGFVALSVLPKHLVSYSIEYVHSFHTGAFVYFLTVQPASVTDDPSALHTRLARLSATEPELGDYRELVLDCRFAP
Macrophage-stimulating protein receptor (Homo sapiens), sequence (Q04912 310-1400 limits assumed): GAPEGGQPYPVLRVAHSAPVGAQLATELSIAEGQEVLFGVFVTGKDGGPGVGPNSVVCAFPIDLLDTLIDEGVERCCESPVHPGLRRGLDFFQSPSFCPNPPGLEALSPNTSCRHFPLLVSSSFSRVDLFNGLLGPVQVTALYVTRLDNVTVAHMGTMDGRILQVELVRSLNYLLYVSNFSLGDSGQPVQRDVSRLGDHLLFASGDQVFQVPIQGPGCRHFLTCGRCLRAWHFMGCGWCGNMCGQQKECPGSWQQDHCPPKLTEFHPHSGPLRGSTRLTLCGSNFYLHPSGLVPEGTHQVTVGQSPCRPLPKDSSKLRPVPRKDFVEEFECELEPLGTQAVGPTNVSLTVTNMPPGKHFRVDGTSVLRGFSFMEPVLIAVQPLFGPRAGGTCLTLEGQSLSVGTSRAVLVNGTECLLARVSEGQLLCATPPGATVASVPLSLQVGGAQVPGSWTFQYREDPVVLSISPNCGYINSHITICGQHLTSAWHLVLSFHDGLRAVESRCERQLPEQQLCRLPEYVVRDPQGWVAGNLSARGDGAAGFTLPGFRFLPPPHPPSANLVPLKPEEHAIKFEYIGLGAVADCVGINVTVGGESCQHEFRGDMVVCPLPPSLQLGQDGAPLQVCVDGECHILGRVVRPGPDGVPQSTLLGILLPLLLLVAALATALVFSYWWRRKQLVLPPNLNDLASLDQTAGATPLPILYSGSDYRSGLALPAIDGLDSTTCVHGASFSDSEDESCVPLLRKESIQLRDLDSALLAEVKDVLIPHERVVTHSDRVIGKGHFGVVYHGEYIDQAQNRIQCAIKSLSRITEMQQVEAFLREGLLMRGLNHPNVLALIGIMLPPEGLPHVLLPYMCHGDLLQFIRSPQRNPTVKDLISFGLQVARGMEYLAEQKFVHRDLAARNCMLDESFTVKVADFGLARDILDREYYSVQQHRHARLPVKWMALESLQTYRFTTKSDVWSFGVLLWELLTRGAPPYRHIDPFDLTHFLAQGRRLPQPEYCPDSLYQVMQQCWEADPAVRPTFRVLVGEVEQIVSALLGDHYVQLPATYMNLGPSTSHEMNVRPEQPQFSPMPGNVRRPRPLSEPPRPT

With `C#Cc1n[nH]c2c(-c3cn([C@@H](C)c4ccccn4)c(=O)[nH]c3=O)cc(F)cc12` the hepatocyte CLint at 1 µM [1] was 6.07 µL/min/1e6 cells, the logD [2] was 2.7 and the microsomal CLint at 1 µM [3] was 18 µL/min/mg. For the same compound, the IC50 [4] was 16 nM, the inhibition [5] was 80% and the inhibition [6] was 75.3%. The inhibition [7] was < 50% and the inhibition [8] was < 50%.
